Read-outs that look alike come from different tables or passages of the source. Numbered stars: 1 amine (or outer) side, 2 acyl side, 3 side chain; on linkers, the order of the positions; unused ones are H or OH. Bridge positions count the residues as written; N and C are the ends. Square brackets hold non-standard residues; d marks the D form. Peptide text beside a SMILES is read from it. * marks the point of attachment. C20 diacid = O=C(O)CCCCCCCCCCCCCCCCCCC(=O)*; γGlu = O=C(O)[C@H](CCC(=O)[*:2])N[*:1]; NMeI = CC[C@H](C)[C@H](NC)C(=O)O; Sar = CNCC(=O)O
Key:
[1] = Solubility assessment (turbidity absorbance at 325 nm); format: physicochemical; settings: stock 2 mg/ml diluted 1:1, ambient temperature (typically 25°C), n=1; for Solubility, Acetate buffer pH 4: 100 mM acetate buffer pH 4.0; for Solubility, Acetate buffer pH 5: 100 mM acetate buffer pH 5.0; for Solubility, Histidine buffer pH 6: 100 mM histidine buffer pH 6.0; for Solubility, Histidine buffer pH 7: 100 mM histidine buffer pH 7.0; for Solubility, Phosphate buffer pH 6: 100 mM phosphate buffer pH 6.0; for Solubility, Phosphate buffer pH 7: 100 mM phosphate buffer pH 7.0; for Solubility, Phosphate buffer pH 7.5: 100 mM phosphate buffer pH7.5
Procedure, shortened: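 Peptide stock (2 mg/ml) in water acidified to pH 2.5 with HCl was diluted 1:1 into 100 mM acetate (pH 4.0, 5.0), histidine (pH 6.0, 7.0) or phosphate (pH 6.0, 7.0, 7.5) buffer. A280 and A325 were read at about 25°C, n=1. A325 ≤ 0.02 meant solubility ≥ 1 mg/ml.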

[2] = target: T1, human amylin receptor 3 (hAMYR3) consisting of hCTR2 co-expressed with human Receptor Activity Modifying Protein 3 (hRAMP3) (Homo sapiens, UniProt O60896+P30988); test: hAMYR3 assay: induction of cAMP (AlphaScreen cAMP Assay kit) in COS7 cells expressing hAMYR3; format: cell-based
T1 construct: expressed in transfected cells
T1 sequence (P30988 25-474): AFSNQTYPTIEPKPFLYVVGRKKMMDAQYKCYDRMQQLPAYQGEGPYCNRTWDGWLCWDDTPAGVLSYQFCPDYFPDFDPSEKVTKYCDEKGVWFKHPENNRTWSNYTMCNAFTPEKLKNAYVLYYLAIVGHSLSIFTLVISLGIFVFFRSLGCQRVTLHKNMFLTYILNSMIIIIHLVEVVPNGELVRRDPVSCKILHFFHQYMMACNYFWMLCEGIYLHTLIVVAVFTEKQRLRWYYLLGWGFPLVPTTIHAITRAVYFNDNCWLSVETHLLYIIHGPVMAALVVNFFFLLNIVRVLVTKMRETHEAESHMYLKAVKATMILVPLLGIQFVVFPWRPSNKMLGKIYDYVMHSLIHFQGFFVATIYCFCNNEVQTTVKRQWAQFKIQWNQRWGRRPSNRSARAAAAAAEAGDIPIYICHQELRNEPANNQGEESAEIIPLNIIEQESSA
T1 sequence (O60896 24-148 partner): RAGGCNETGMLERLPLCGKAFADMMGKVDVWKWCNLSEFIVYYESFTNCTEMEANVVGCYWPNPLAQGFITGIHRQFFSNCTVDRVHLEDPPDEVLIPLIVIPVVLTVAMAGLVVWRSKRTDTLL
Procedure, shortened: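 Stable COS7 clone co-expressing hCTR2 and hRAMP3, stimulated 15 min at 37° C with increasing peptide in Tyrode buffer pH 7.4 with 100 µM IBMX and 0.1% casein. cAMP measured by AlphaScreen after lysis; EC50 and % efficacy versus pramlintide from 4PL fit.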

[3] = target: T2, human calcitonin receptor (hCTR2) (Homo sapiens, UniProt P30988); test: hCTR2 assay: induction of cAMP (AlphaScreen cAMP Assay kit) in COS7 cells expressing hCTR2; format: cell-based
T2 construct: expressed in transfected cells
T2 sequence (P30988 25-474): T1 sequence (P30988 25-474)
Procedure, shortened: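 Stable hCTR2 clone in RAMP-naive COS7 cells; peptides titrated in Tyrode buffer (pH 7.4) with 100 µM IBMX, 0.1% casein, 15 min at 37° C. cAMP read by AlphaScreen after lysis; EC50 and efficacy relative to pramlintide from 4PL fit.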

[4] = cAMP induction in COS7 cells expressing hAMYR3, average of a minimum of 3 determinations, read-out: hAMY R3 EC50
[5] = cAMP induction in COS7 cells expressing hCTR2, average of a minimum of 3 determinations, read-out: hCTR2 EC50

EC50 [2, 4] [nM]	EC50 [3, 5] [nM]	SMILES	Solubility, Acetate buffer pH 4 [1]	Solubility, Acetate buffer pH 5 [1]	Solubility, Histidine buffer pH 6 [1]	Solubility, Histidine buffer pH 7 [1]	Solubility, Phosphate buffer pH 6 [1]	Solubility, Phosphate buffer pH 7 [1]	Solubility, Phosphate buffer pH 7.5 [1]	EC50 [3] [nM]	EC50 [2] [nM]
0.11	0.066	CC[C@H](C)[C@@H](C(=O)N[C@@H](CC(C)C)C(=O)N[C@@H](CO)C(=O)N[C@@H](CO)C(=O)N[C@H](C(=O)N[C@@H](CCC(=O)O)C(=O)N[C@H](C(=O)NCC(=O)N[C@@H](CO)C(=O)N[C@@H](CCC(=O)O)C(=O)N[C@H](C(=O)N1CCC[C@H]1C(N)=O)[C@@H](C)O)C(C)C)[C@@H](C)O)N(C)C(=O)[C@H](C)NC(=O)CN(C)C(=O)[C@H](Cc1ccccc1)NC(=O)[C@H](CO)NC(=O)[C@H](CO)NC(=O)[C@H](CO)NC(=O)[C@H](CO)NC(=O)[C@H](CCCNC(=N)N)NC(=O)[C@H](Cc1c[nH]cn1)NC(=O)[C@H](CC(C)C)NC(=O)[C@H](Cc1ccccc1)NC(=O)[C@H](CCC(=O)O)NC(=O)[C@H](C)NC(=O)[C@H](CC(C)C)NC(=O)[C@H](CCCNC(=N)N)NC(=O)[C@H](CC(=O)O)NC(=O)[C@@H](NC(=O)[C@H](C)NC(=O)[C@@H]1CSSC[C@H](NC(=O)[C@H](CCCNC(=N)N)NC(=O)CC[C@H](NC(=O)CCCCCCCCCCCCCCCCCCC(=O)O)C(=O)O)C(=O)N2CCC[C@H]2C(=O)N[C@@H]([C@@H](C)O)C(=O)N[C@@H](C)C(=O)N[C@@H]([C@@H](C)O)C(=O)N1)[C@@H](C)O [Compound 151, [19CD]-isoGlu-RC()PTATC()ATDRLAEFLHRSSSSF-Gly(Me)-A-Ile(Me)-LSSTEVGSETP-NH2] ({C20 diacid-γGlu}-RCPTATCATDRLAEFLHRSSSSF[Sar]A[NMeI]LSSTEVGSETP-NH2; disulfide 2-7)	SS (SS indicates solubility ≥ 1mg/ml)	SS (SS indicates solubility ≥ 1mg/ml)	SS (SS indicates solubility ≥ 1mg/ml)	SS (SS indicates solubility ≥ 1mg/ml)	SS (SS indicates solubility ≥ 1mg/ml)	SS (SS indicates solubility ≥ 1mg/ml)	SS (SS indicates solubility ≥ 1mg/ml)	–	–
–	–	CC[C@H](C)[C@@H](C(=O)N[C@@H](CC(C)C)C(=O)N[C@@H](CO)C(=O)N[C@@H](CO)C(=O)N[C@H](C(=O)N[C@@H](CC(N)=O)C(=O)N[C@H](C(=O)NCC(=O)N[C@@H](CO)C(=O)N[C@@H](CC(N)=O)C(=O)N[C@H](C(=O)N1CCC[C@H]1C(=O)NC)[C@@H](C)O)C(C)C)[C@@H](C)O)N(C)C(=O)[C@H](C)NC(=O)CN(C)C(=O)[C@H](Cc1ccccc1)NC(=O)[C@H](CC(N)=O)NC(=O)[C@H](CC(N)=O)NC(=O)[C@H](CO)NC(=O)[C@H](CO)NC(=O)[C@H](CCCNC(=N)N)NC(=O)[C@H](Cc1c[nH]cn1)NC(=O)[C@H](CC(C)C)NC(=O)[C@H](Cc1ccccc1)NC(=O)[C@H](CCC(=O)O)NC(=O)[C@H](C)NC(=O)[C@H](CC(C)C)NC(=O)[C@H](CCCNC(=N)N)NC(=O)[C@H](CCC(N)=O)NC(=O)[C@@H](NC(=O)[C@H](C)NC(=O)[C@@H]1CSSC[C@H](NC(=O)[C@H](CCCNC(=N)N)NC(=O)CC[C@H](NC(=O)CCCCCCCCCCCCCCCCCCC(=O)O)C(=O)O)C(=O)N[C@@H](CC(N)=O)C(=O)N[C@@H]([C@@H](C)O)C(=O)N[C@@H](C)C(=O)N[C@@H]([C@@H](C)O)C(=O)N1)[C@@H](C)O [Compound 152, [19CD]-isoGlu-RC()NTATC()ATQRLAEFLHRSSNNF-Gly(Me)-A-Ile(Me)-LSSTNVGSNTP-NHMe] ({C20 diacid-γGlu}-RCNTATCATQRLAEFLHRSSNNF[Sar]A[NMeI]LSSTNVGSNTP-NHMe; disulfide 2-7)	SS (SS indicates solubility ≥ 1mg/ml)	SS (SS indicates solubility ≥ 1mg/ml)	SS (SS indicates solubility ≥ 1mg/ml)	SS (SS indicates solubility ≥ 1mg/ml)	SS (SS indicates solubility ≥ 1mg/ml)	SS (SS indicates solubility ≥ 1mg/ml)	SS (SS indicates solubility ≥ 1mg/ml)	0.95	5.2
6.1	0.73	CC[C@H](C)[C@@H](C(=O)N[C@@H](CC(C)C)C(=O)N[C@@H](CO)C(=O)N[C@@H](CO)C(=O)N[C@H](C(=O)N[C@@H](CC(N)=O)C(=O)N[C@H](C(=O)NCC(=O)N[C@@H](CO)C(=O)N[C@@H](CC(N)=O)C(=O)N[C@H](C(=O)N1CCC[C@H]1C(=O)NC)[C@@H](C)O)C(C)C)[C@@H](C)O)N(C)C(=O)CN(C)C(=O)[C@H](Cc1ccccc1)NC(=O)[C@H](CC(N)=O)NC(=O)[C@H](CC(N)=O)NC(=O)[C@H](CO)NC(=O)[C@H](CO)NC(=O)[C@H](CCCNC(=N)N)NC(=O)[C@H](Cc1c[nH]cn1)NC(=O)[C@H](CC(C)C)NC(=O)[C@H](Cc1ccccc1)NC(=O)[C@H](CCC(=O)O)NC(=O)[C@H](C)NC(=O)[C@H](CC(C)C)NC(=O)[C@H](CCCNC(=N)N)NC(=O)[C@H](CCC(N)=O)NC(=O)[C@@H](NC(=O)[C@H](C)NC(=O)[C@@H]1CSSC[C@H](NC(=O)[C@H](CCCNC(=N)N)NC(=O)CC[C@H](NC(=O)CCCCCCCCCCCCCCCCCCC(=O)O)C(=O)O)C(=O)N[C@@H](CC(N)=O)C(=O)N[C@@H]([C@@H](C)O)C(=O)N[C@@H](C)C(=O)N[C@@H]([C@@H](C)O)C(=O)N1)[C@@H](C)O [Compound 153, [19CD]-isoGlu-RC()NTATC()ATQRLAEFLHRSSNNF-Gly(Me)-Ile(Me)-LSSTNVGSNTP-NHMe] ({C20 diacid-γGlu}-RCNTATCATQRLAEFLHRSSNNF[Sar][NMeI]LSSTNVGSNTP-NHMe; disulfide 2-7)	SS (SS indicates solubility ≥ 1mg/ml)	SS (SS indicates solubility ≥ 1mg/ml)	II (II indicates solubility ≤ 1 mg/ml)	SS (SS indicates solubility ≥ 1mg/ml)	SS (SS indicates solubility ≥ 1mg/ml)	SS (SS indicates solubility ≥ 1mg/ml)	SS (SS indicates solubility ≥ 1mg/ml)	–	–

SMILES	EC50 [2, 4] [nM]	EC50 [3, 5] [nM]	Solubility, Acetate buffer pH 4 [1]	Solubility, Acetate buffer pH 5 [1]	Solubility, Histidine buffer pH 6 [1]	Solubility, Histidine buffer pH 7 [1]	Solubility, Phosphate buffer pH 6 [1]	Solubility, Phosphate buffer pH 7 [1]	Solubility, Phosphate buffer pH 7.5 [1]	EC50 [3] [nM]	EC50 [2] [nM]
CC[C@H](C)[C@@H](C(=O)N[C@@H](CC(C)C)C(=O)N[C@@H](CO)C(=O)N[C@@H](CO)C(=O)N[C@H](C(=O)N[C@@H](CCC(=O)O)C(=O)N[C@H](C(=O)NCC(=O)N[C@@H](CO)C(=O)N[C@@H](CCC(=O)O)C(=O)N[C@H](C(=O)N1CCC[C@H]1C(N)=O)[C@@H](C)O)C(C)C)[C@@H](C)O)N(C)C(=O)[C@H](C)NC(=O)CN(C)C(=O)[C@H](Cc1ccccc1)NC(=O)[C@H](CO)NC(=O)[C@H](CO)NC(=O)[C@H](CO)NC(=O)[C@H](CO)NC(=O)[C@H](CCCNC(=N)N)NC(=O)[C@H](Cc1c[nH]cn1)NC(=O)[C@H](CC(C)C)NC(=O)[C@H](Cc1ccccc1)NC(=O)[C@H](CCC(=O)O)NC(=O)[C@H](C)NC(=O)[C@H](CC(C)C)NC(=O)[C@H](CCCNC(=N)N)NC(=O)[C@H](CC(=O)O)NC(=O)[C@@H](NC(=O)[C@H](C)NC(=O)[C@@H]1CSSC[C@H](NC(=O)[C@H](CCCNC(=N)N)NC(=O)CC[C@H](NC(=O)CCCCCCCCCCCCCCCCCCC(=O)O)C(=O)O)C(=O)N[C@@H](CCC(=O)O)C(=O)N[C@@H]([C@@H](C)O)C(=O)N[C@@H](C)C(=O)N[C@@H]([C@@H](C)O)C(=O)N1)[C@@H](C)O [Compound 150, [19CD]-isoGlu-RC()ETATC()ATDRLAEFLHRSSSSF-Gly(Me)-A-Ile(Me)-LSSTEVGSETP-NH2] ({C20 diacid-γGlu}-RCETATCATDRLAEFLHRSSSSF[Sar]A[NMeI]LSSTEVGSETP-NH2; disulfide 2-7)	0.26	–	SS (SS indicates solubility ≥ 1mg/ml)	SS (SS indicates solubility ≥ 1mg/ml)	SS (SS indicates solubility ≥ 1mg/ml)	SS (SS indicates solubility ≥ 1mg/ml)	SS (SS indicates solubility ≥ 1mg/ml)	SS (SS indicates solubility ≥ 1mg/ml)	SS (SS indicates solubility ≥ 1mg/ml)	0.16	–

From patent EP3046573B1, “AMYLIN ANALOGUES” (Zealand Pharma A/S, priority 2013, dated 2015)
